Values belong to the compound of their own block, whether it stands above or below them.
Tests used:
p48 SIP kinase [1] = molecular target: T1, p48 SIP kinase (Nicotiana tabacum, UniProt A0A1S3Z5Y0); test: In-solution kinase assay: effects of various reagents on p48 SIP kinase activity; assay type: biochemical, tobacco; settings: for effect on p48 SIP kinase activity: partially purified p48 SIP kinase; for activity at 5000 µM: 5 mM
T1 construct: endogenous in cells; host or cells: SA-treated tobacco suspension culture cells (purified through the poly-L-lysine agarose step)
T1 sequence (A0A1S3Z5Y0 whole entry): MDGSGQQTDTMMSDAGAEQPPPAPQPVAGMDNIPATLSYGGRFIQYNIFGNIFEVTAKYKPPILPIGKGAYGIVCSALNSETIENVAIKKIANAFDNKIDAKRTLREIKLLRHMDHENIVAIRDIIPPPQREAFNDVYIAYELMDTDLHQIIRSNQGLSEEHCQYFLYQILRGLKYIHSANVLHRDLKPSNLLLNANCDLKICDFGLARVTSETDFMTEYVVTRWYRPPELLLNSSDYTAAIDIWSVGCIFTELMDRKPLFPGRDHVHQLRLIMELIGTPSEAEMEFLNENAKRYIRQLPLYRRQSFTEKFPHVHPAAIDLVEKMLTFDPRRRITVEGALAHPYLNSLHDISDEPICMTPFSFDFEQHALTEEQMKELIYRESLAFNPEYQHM
Method: (§1) Unless specifically indicated, assays were performed at room temperature for 20 minutes in a final volume of 15 μl containing 0.5 mg/mL of MBP, 50 μM of γ-^32 P-ATP (about 3000-6000 cpm/pmole), 25 mM Tris pH 7.5, 5 mM MgCl2, 1 mM EGTA, 1 mM DTT, and enzyme. The reaction was terminated by the addition of equal volume of 150 mM H3 PO4. Twenty μL of the mixture was spotted onto an 8-well phosphocellulose filter strip (Pierce, Ill.). After washing with 150 mM H3 PO4 extensively, the phospho-protein was eluted with 0.4 mL of 1 N NaOH, and the radioactivity was determined by liquid scintillation counting. Total cpm in the reaction mixture was also determined in order to calculate the specific activity of the enzyme preparation. One unit of p48 SIP kinase was defined as the amount of enzyme that will catalyze the transfer of 1 pmole of phosphate from ATP to MBP in 1 minute.
^a For each reagent, a dose response curve was measured under standar
assay conditions. About 0.5 unit of enzyme was used for each reaction.
Control was the enzyme activity in the absence of reagent.

[2] = molecular target: p48 SIP kinase (salicylic acid-induced protein kinase), activated form from SA- or H2O2-treated tobacco cells, in extracts or purified (tobacco (Nicotiana tabacum cv Xanthi nc))
p48 SIP kinase [3] = molecular target: T1, p48 SIP kinase; test: Kinetic properties, substrates, cofactors and pH dependence of p48 SIP kinase (in-solution kinase assay); assay type: biochemical, tobacco; settings: for use as phospho-donor / phosphate donor: data not shown; for metal ion requirement of the enzyme: FIG. 10B
Method: FIGS. 10A and 10B show a pair of graphs illustrating the effect of pH (FIG. 10A), Mg^2+ and Mn^2+ (FIG. 10B) on p48 SIP kinase activity. Approximately 0.5 unit of partially purified enzyme was used in each test. Buffers used for measuring the effect of pH were 50 mM 2-[N-morpholino]ethanesulfonic acid (Mes, pH 5.0-8.0, .circle-solid.), 50 mM Tris (pH 6.0-9.5, .tangle-solidup.), and 50 mM 3-[cyclohexylamino]-1-propanesulfonic acid (Caps, pH 9.0-12.0, .box-solid.). For testing the effects of Mg^2+ (.circle-solid.), and Mn^2+ (.tangle-solidup.), buffer B from the last purification step was first exchanged to Mg^2+ -free buffer using a desalting column. Mg^2+ was not added in reactions for testing the effect of Mn^2+.
FIG. 11 is a graph depicting the protein substrate preference of the p48 SIP kinase. About 0.5 unit of partially purified enzyme was used in each reaction. The assay conditions were as described below in Example 1, except various concentrations of MBP (.circle-solid.), histone (.tangle-solidup.), and casein (.box-solid.) were used.
as §1

p48 SIP kinase [4] = test: In-gel kinase activity assay (MBP substrate) in extracts of treated tobacco suspension cells: activation of p48 SIP kinase; assay type: cell-based, Nicotiana tabacum cv Xanthi nc; settings: tobacco suspension cells; for activation of 48 kDa (p48 SIP) kinase: 250 μM, MBP substrate; for duration of SIP kinase activation relative to SA: data not shown for analogues
Method: The cell suspension culture was derived from callus tissue originated from leaves of Nicotiana tabacum cv Xanthi nc and grown in MS medium supplemented with 1 mg/L α-naphthaleneacetic acid, 0.1 mg/L 2,4-dichlorophenoxyacetic acid, 0.1 mg/L benzyladenine, and 3% sucrose. Log phase cells were used three days after a 1:10 dilution. Treatment with H2 O2, SA and its analogues was performed in the original flasks in the dark to avoid any stresses associated with transfer. At various times, 10 mL cells (approximately 0.2 to 0.3 g fresh weight of cells) were harvested by filtration. The cells were quickly frozen in liquid nitrogen and stored at -80° C. until analysis.
Leaf discs were first ground to a fine powder in 1.5 ml microcentrifuge tubes using small plastic pestles. After adding 0.25 mL extraction buffer (100 mM Hepes, pH 7.5, 5 mM EDTA, 5 mM EGTA, 10 mM DTT, 10 mM Na3 VO4, 10 mM NaF, 50 mM β-glycerolphosphate, 1 mM phenylmethylsulfonyl fluoride, 5 μg/mL antipain, 5 μg/mL aprotinin, 5 μg/mL leupeptin, 10% glycerol, 7.5% polyvinylpolypyrrolidone), the mixture was sonicated for 15 seconds with a W-375 Sonicator (Heat System-Ultrasonics, Inc., N.Y.) fitted with a microprobe at setting 4 and 80% duty cycle. To prepare extracts from treated cells, cells were mixed with two volumes (w/v) of extraction buffer and were then sonicated twice for 15 seconds each in 1.5 mL microcentrifuge tube. After centrifugation at 13,000 rpm for 20 minutes, supernatants were transferred into clean tubes, quickly frozen in liquid nitrogen and stored at -80° C.
The in-gel kinase assay was performed as described previously (Zhang et al., 1993). Extracts containing 10 μg protein were electrophoresed on 10% SDS-polyacrylamide gels imbedded with either 1 mg/mL of casein, 1 mg/mL histone (Type III-SS, Sigma, MO), 1 mg/mL BSA, or 0.25 mg/mL of MBP in the separating gel as substrate for the kinase. After electrophoresis, SDS was removed by washing the gel with washing buffer (25 mM Tris, pH 7.5, 0.5 mM DTT, 0.1 mM Na3 VO4, 5 mM NaF, 0.5 mg/mL BSA, 0.1% Triton X-100 [v/v]). The buffer was changed three times, each for 30 minutes at room temperature. The kinases were allowed to renature in 25 mM Tris, pH 7.5, 1 mM DTT, 0.1 mM Na3 VO4, 5 mM NaF at 4° C. overnight with three changes of buffer. The gel was then incubated at room temperature in 30 mL reaction buffer (25 mM Tris, pH 7.5, 2 mM EGTA, 12 mM MgCl2, 1 mM DTT, 0.1 mM Na3 VO4) with 200 nM ATP plus 50 μCi γ-^32 P-ATP (3000 Ci/mmole) for 60 minutes. The reaction was stopped by transferring the gel into 5% TCA (w/v)/1% NaPPi (w/v). The unincorporated γ-^32 P-ATP was removed by washing in the same solution for at least 6 hours with 5 changes of buffer. The gel was dried onto 3 MM paper and exposed to Kodak XAR-5 film. Prestained size markers (Bio-Rad, CA) were used to calculate the size of the kinases. Quantitation of the relative kinase activities were done using a phosphoimager (Molecular Dynamics Inc., CA).

[5] = tested on: PR gene expression and enhanced disease resistance; settings: Conrath et al., 1995; cited from earlier work
p48 SIP kinase [6] = test: Treatment of p48 SIP kinase with phosphatases; assay type: biochemical, tobacco; settings: okadaic acid against PP1; Na3 VO4 against YOP
Method: FIG. 13 is a histogram showing inactivation of p48 SIP kinase by phosphatase treatment. Approximately 20 units of the SIP kinase was treated with either the serine/threonine-specific phosphatase PPI (0.1 units) or the tyrosine-specific protein phosphatase YOP (0.5 units) for 10 min (bars 2 to 5) or 30 min (bars 7 to 10) at 30° C. in the presence or absence of a phosphatase inhibitor. Bars 1 and 6 represent the control without phosphatase or phosphatase inhibitor; bars 2 and 7, PPI; bars 3 and 8, PPI plus okadaic acid (1 μM); bars 4 and 9, YOP; bars 5 and 10, YOP plus Na3 VO4 (1 mM). Before assaying for SIP kinase activity, the phosphatase inhibitors were added to all of the reactions to the same final concentrations.
The phosphatase inhibitors present in the purified p48 SIP kinase preparation were first removed by dialysis against buffer B lacking β-glycerophosphate and Na3 VO4 in a 0.5-mL 10 K dialysis cassette (Slide-A-Lyzer; Pierce). For treatment with serine/threonine protein phosphatase PP1 (Calbiochem, San Diego, Calif.), MnCl2, DTT, and BSA were added to aliquots of the SIP kinase preparation to final concentrations of 200 μm, 5 mM and 100 μg/mL respectively. Then 0.1 unit of PP1 was added, and the reaction mixture was incubated at 30° C. in the presence or absence of 1 μM of the phosphatase inhibitor okadaic acid (Calbiochem). […]

[7] = 20 min, pH 7.5, read-out: Relative Activity

Relative Activity % of control (% of control at 500 µg mL^-1) [2]: 100
Compound: Poly-L-glutamine [listing 1 of 2 here]

Relative Activity (p48 SIP kinase [1]; 500 μg mL^-1, 20 min): 100 % of control
Compound: Poly-L-glutamine [listing 2 of 2 here]
effect on p48 SIP kinase activity (p48 SIP kinase [1]): showed no effect at the concentrations tested

activity at 5000 µM (p48 SIP kinase [1]; [7]): 100%
Compound: OC(CS)C(O)CS (stereo not drawn) [DTT]

activity at 10000 µM (p48 SIP kinase [1]; 20 min, pH 7.5, 10 mM, read-out: Relative Activity): 100%
effect on p48 SIP kinase activity (p48 SIP kinase [1]): no effect on its activity
Compound: O=C(O)CN(CCOCCOCCN(CC(=O)O)CC(=O)O)CC(=O)O [EGTA]

Relative Activity (p48 SIP kinase [1]; 0.5 mM, 20 min): 100 % of control
Relative Activity (p48 SIP kinase [1]; 5.0 mM, 20 min): 50 % of control
effect on p48 SIP kinase activity (p48 SIP kinase [1]): inhibited the enzyme
calcium requirement for activity (p48 SIP kinase [3]): lacks a calcium requirement for activity
Compound: [Ca+2] [Ca^2+]

Relative Activity % of control (% of control at 500 µg mL^-1) [2]: 50
Compound: Poly-L-glutamate [listing 1 of 2 here]

Relative Activity % of control (% of control at 25 µg mL^-1) [2]: 50
Compound: Poly-L-lysine [listing 2 of 2 here]

Relative Activity (p48 SIP kinase [1]; 500 μg mL^-1, 20 min): 50 % of control
effect on p48 SIP kinase activity (p48 SIP kinase [1]): showed inhibitory effects
Compound: Poly-L-glutamate [listing 2 of 2 here]

activity at 20 µM (p48 SIP kinase [1]; 20 min, pH 7.5, 20 μM, read-out: Relative Activity): 100%
effect on p48 SIP kinase activity (p48 SIP kinase [1]): no effect on its activity
Compound: O=c1c(-c2ccc(O)cc2)coc2cc(O)cc(O)c12 [Genistein, genistein]

Continued, compound first:

Compound: NCCCCNCCCN [Spermidine, spermidine]
activity at 1000 µM (p48 SIP kinase [1]; 20 min, pH 7.5, 1 mM, read-out: Relative Activity): 100%
effect on p48 SIP kinase activity (p48 SIP kinase [1]): showed no effect at the concentrations tested

Compound: CN[C@@H]1C[C@H]2O[C@@](C)([C@@H]1OC)n1c3ccccc3c3c4c(c5c6ccccc6n2c5c31)C(=O)NC4 [Staurosporine, staurosporine]
IC50 (p48 SIP kinase [1]): 60 nM
activity at 0.06 µM (p48 SIP kinase [1]; [7]): 50%

Compound: CN(C)C(=O)/N=N/C(=O)N(C)C [Diamide]
activity at 5000 µM (p48 SIP kinase [1]; [7]): 50%

Compound: COC(=O)[C@@]1(O)C[C@H]2O[C@]1(C)n1c3ccccc3c3c4c(c5c6ccccc6n2c5c31)C(=O)NC4 [K-252a]
IC50 (p48 SIP kinase [1]): 12 nM
activity at 0.012 µM (p48 SIP kinase [1]; [7]): 50%

Compound: Nc1ncnc2c1ncn2[C@@H]1O[C@H](COP(=O)(O)OP(=O)([O-])OP(=O)([O-])O)[C@@H](O)[C@H]1O.[Mg+2] [Mg^2+ -ATP]
Vmax (p48 SIP kinase [3]): 0.39 µmol/min/mg
Km (p48 SIP kinase [3]; Mg^2+ -ATP): 24 µM

Compound: O=C(O)c1ccc(Cl)cc1O [4-CSA, 4-chloroSA]
activation of 48 kDa (p48 SIP) kinase (p48 SIP kinase [4]): activated the SIP kinase to similar extents as SA
duration of SIP kinase activation relative to SA (p48 SIP kinase [4]): more sustained activation of the SIP kinase than SA
induction of PR gene expression and enhanced disease resistance [5]: induce PR gene expression and enhanced disease resistance in tobacco

Compound: [Na+] [Na^+]
Relative Activity (p48 SIP kinase [1]; 100 mM, 20 min): 100 % of control
Relative Activity (p48 SIP kinase [1]; 750 mM, 20 min): 50 % of control

Compound: O=C(O)c1cccc(O)c1 [3-HBA, 3-hydroxybenzoic acid]
activation of 48 kDa (p48 SIP) kinase (p48 SIP kinase [4]): poor activators

Compound: [Na+].[Na+].[Na+].[O]=[V]([O-])([O-])[O-] [Na3 VO4]
prevention of phosphatase inactivation of SIP kinase (p48 SIP kinase [6]): could be prevented

Compound: O=C(O)c1ccc(O)cc1 [4-HBA]
activation of 48 kDa (p48 SIP) kinase (p48 SIP kinase [4]): poor activators

Compound: [Zn+2] [Zn^2+]
Relative Activity (p48 SIP kinase [1]; 0.10 mM, 20 min): 100 % of control
Relative Activity (p48 SIP kinase [1]; 0.25 mM, 20 min): 50 % of control
effect on p48 SIP kinase activity (p48 SIP kinase [1]): inhibited the enzyme

Compound: protamine
Relative Activity % of control (% of control at 25 µg mL^-1) [2]: 50

Compound: Nc1nc2c(ncn2[C@@H]2O[C@H](COP(=O)(O)OP(=O)(O)OP(=O)(O)O)[C@@H](O)[C@H]2O)c(=O)[nH]1 [Mg^2+ -GTP]
use as phospho-donor / phosphate donor (p48 SIP kinase [3]): could not use
use as phospho-donor / phosphate donor (p48 SIP kinase [3]; listed as GTP): unable to use GTP as a phosphate donor

Compound: O=C(O)c1cc(Cl)ccc1O [5-CSA]
activation of 48 kDa (p48 SIP) kinase (p48 SIP kinase [4]): activated the SIP kinase to similar extents as SA
duration of SIP kinase activation relative to SA (p48 SIP kinase [4]): more sustained activation of the SIP kinase than SA
induction of PR gene expression and enhanced disease resistance [5]: induce PR gene expression and enhanced disease resistance in tobacco

Compound: Poly-L-lysine [listing 1 of 2 here]
Relative Activity (p48 SIP kinase [1]; 25 μg mL^-1, 20 min): 50 % of control
effect on p48 SIP kinase activity (p48 SIP kinase [1]): showed inhibitory effects

Compound: [Mg+2] [Mg^2+]
metal ion requirement of the enzyme (p48 SIP kinase [3]): absolute requirement
MgCl2 concentration up to which kinase activity was strongly stimulated (p48 SIP kinase [3]; total concentration): ≤ 2 mM

Compound: Heparin
Relative Activity (p48 SIP kinase [1]; 50 μg mL^-1, 20 min): 50 % of control
effect on p48 SIP kinase activity (p48 SIP kinase [1]): showed inhibitory effects

Compound: Protamine
Relative Activity (p48 SIP kinase [1]; 25 μg mL^-1): 50 % of control
effect on p48 SIP kinase activity (p48 SIP kinase [1]): showed inhibitory effects

Compound: [Mn+2] [Mn^2+]
metal ion requirement of the enzyme (p48 SIP kinase [3]): could not substitute for Mg^2+
